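Grown in 96-well plates, cells were treated for 48 hours with each compound at five concentrations. Insufficient inhibition: endpoint recorded as highest concentration tested. At the TGI there is no net growth.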 Bounds are passed on as bounds.

The source of these data is PubChem BioAssay (NCI).

In one experiment the test system is 786-0 renal. Put plainly: NCI tumour cell line growth inhibition, 48 h.
The compound `Cc1ccc(-c2c3c(n(C4OC(CO)C(O)C(O)C4O)c(=S)c2C#N)CC(C)(C)CC3=O)cc1` (stereo not given) displayed a TGI of over 100 µM.

Compound `COc1ccc(C(OCC2OC(n3cc(C)c(=O)[nH]c3=O)CC2n2cc(Cn3cc(Br)c(=O)[nH]c3=O)nn2)(c2ccccc2)c2ccccc2)cc1` (stereo not given) showed a TGI of over 100 µM.

Turning to `CC(C)=C1C(=O)C[C@]2(C)C[C@H]3/C(=C(/C)CCC12)CC[C@@]3(C)O` (stereo not given in full), the TGI is over 50 µM.

In turn, `COc1ccc(C(OC(C)=O)C2C(=C(C#N)C#N)c3ccccc3C2=C(C#N)C#N)cc1` (stereo not given) registered a TGI of over 100 µM.

`CC(C)(C)C(=O)OC(N)/C=C/c1ccccc1` (stereo not given) came in with a TGI of over 100 µM.

For `C[C@@H]1CCC2[C@@H](C)[C@@H](OCCO[C@H]3OC4O[C@@]5(C)CCC6[C@H](C)CCC([C@H]3C)[C@@]46OO5)OC3O[C@@]4(C)CCC1[C@]32OO4` (stereo not given in full), the TGI is over 100 µM.

For the next experiment, the system named is A498 renal. Put plainly: NCI tumour cell line growth inhibition, 48 h.
Consider `Cc1ccc(-c2c3c(n(C4OC(CO)C(O)C(O)C4O)c(=S)c2C#N)CC(C)(C)CC3=O)cc1` (stereo not given), for which the TGI is over 100 µM.

Compound `COc1ccc(C(OCC2OC(n3cc(C)c(=O)[nH]c3=O)CC2n2cc(Cn3cc(Br)c(=O)[nH]c3=O)nn2)(c2ccccc2)c2ccccc2)cc1` (stereo not given) yielded a TGI of over 100 µM.

As to `CC(C)=C1C(=O)C[C@]2(C)C[C@H]3/C(=C(/C)CCC12)CC[C@@]3(C)O` (stereo not given in full), the TGI is over 50 µM.

`COc1ccc(C(OC(C)=O)C2C(=C(C#N)C#N)c3ccccc3C2=C(C#N)C#N)cc1` (stereo not given) gave a TGI of 58.6 µM.

For the compound `CC(C)(C)C(=O)OC(N)/C=C/c1ccccc1` (stereo not given), the TGI was over 100 µM.

As to `C[C@@H]1CCC2[C@@H](C)[C@@H](OCCO[C@H]3OC4O[C@@]5(C)CCC6[C@H](C)CCC([C@H]3C)[C@@]46OO5)OC3O[C@@]4(C)CCC1[C@]32OO4` (stereo not given in full), the TGI is over 77.1 µM.

In the next experiment the test system is CAKI-1 renal. Nature of the experiment: NCI tumour cell line growth inhibition, 48 h.
Compound `Cc1ccc(-c2c3c(n(C4OC(CO)C(O)C(O)C4O)c(=S)c2C#N)CC(C)(C)CC3=O)cc1` (stereo not given) gave a TGI of over 100 µM.

On to `COc1ccc(C(OCC2OC(n3cc(C)c(=O)[nH]c3=O)CC2n2cc(Cn3cc(Br)c(=O)[nH]c3=O)nn2)(c2ccccc2)c2ccccc2)cc1` (stereo not given), for which the TGI was over 100 µM.

In turn, `CC(C)=C1C(=O)C[C@]2(C)C[C@H]3/C(=C(/C)CCC12)CC[C@@]3(C)O` (stereo not given in full) returned a TGI of over 50 µM.

For `COc1ccc(C(OC(C)=O)C2C(=C(C#N)C#N)c3ccccc3C2=C(C#N)C#N)cc1` (stereo not given), the TGI is over 100 µM.

In the case of `CC(C)(C)C(=O)OC(N)/C=C/c1ccccc1` (stereo not given), the TGI was over 100 µM.

With `C[C@@H]1CCC2[C@@H](C)[C@@H](OCCO[C@H]3OC4O[C@@]5(C)CCC6[C@H](C)CCC([C@H]3C)[C@@]46OO5)OC3O[C@@]4(C)CCC1[C@]32OO4` (stereo not given in full), the TGI is 2.07 µM.

In another experiment the test system is CCRF-CEM leukemia. Put plainly: NCI tumour cell line growth inhibition, 48 h.
Compound `Cc1ccc(-c2c3c(n(C4OC(CO)C(O)C(O)C4O)c(=S)c2C#N)CC(C)(C)CC3=O)cc1` (stereo not given) yielded a TGI of over 100 µM.

`COc1ccc(C(OCC2OC(n3cc(C)c(=O)[nH]c3=O)CC2n2cc(Cn3cc(Br)c(=O)[nH]c3=O)nn2)(c2ccccc2)c2ccccc2)cc1` (stereo not given) showed a TGI of over 100 µM.

Turning to `CC(C)=C1C(=O)C[C@]2(C)C[C@H]3/C(=C(/C)CCC12)CC[C@@]3(C)O` (stereo not given in full), the TGI was over 50 µM.

The compound `COc1ccc(C(OC(C)=O)C2C(=C(C#N)C#N)c3ccccc3C2=C(C#N)C#N)cc1` (stereo not given) yielded a TGI of 62.6 µM.

Turning to `CC(C)(C)C(=O)OC(N)/C=C/c1ccccc1` (stereo not given), the TGI was over 100 µM.

`C[C@@H]1CCC2[C@@H](C)[C@@H](OCCO[C@H]3OC4O[C@@]5(C)CCC6[C@H](C)CCC([C@H]3C)[C@@]46OO5)OC3O[C@@]4(C)CCC1[C@]32OO4` (stereo not given in full) had a TGI of over 100 µM.

The test system of a further experiment is COLO 205 colon. Nature of the experiment: NCI tumour cell line growth inhibition, 48 h.
Regarding `COc1ccc(C(OCC2OC(n3cc(C)c(=O)[nH]c3=O)CC2n2cc(Cn3cc(Br)c(=O)[nH]c3=O)nn2)(c2ccccc2)c2ccccc2)cc1` (stereo not given), the TGI was over 100 µM.

In turn, `CC(C)=C1C(=O)C[C@]2(C)C[C@H]3/C(=C(/C)CCC12)CC[C@@]3(C)O` (stereo not given in full) had a TGI of over 50 µM.

Compound `CC(C)(C)C(=O)OC(N)/C=C/c1ccccc1` (stereo not given) showed a TGI of over 100 µM.

`C[C@@H]1CCC2[C@@H](C)[C@@H](OCCO[C@H]3OC4O[C@@]5(C)CCC6[C@H](C)CCC([C@H]3C)[C@@]46OO5)OC3O[C@@]4(C)CCC1[C@]32OO4` (stereo not given in full) showed a TGI of 0.304 µM.

Another experiment has as its system EKVX NSCLC. Put plainly: NCI tumour cell line growth inhibition, 48 h.
For `COc1ccc(C(OCC2OC(n3cc(C)c(=O)[nH]c3=O)CC2n2cc(Cn3cc(Br)c(=O)[nH]c3=O)nn2)(c2ccccc2)c2ccccc2)cc1` (stereo not given), the TGI is over 100 µM.

As to `CC(C)=C1C(=O)C[C@]2(C)C[C@H]3/C(=C(/C)CCC12)CC[C@@]3(C)O` (stereo not given in full), the TGI is over 50 µM.

Take `COc1ccc(C(OC(C)=O)C2C(=C(C#N)C#N)c3ccccc3C2=C(C#N)C#N)cc1` (stereo not given): the TGI is over 100 µM.

Compound `CC(C)(C)C(=O)OC(N)/C=C/c1ccccc1` (stereo not given) had a TGI of over 100 µM.

`C[C@@H]1CCC2[C@@H](C)[C@@H](OCCO[C@H]3OC4O[C@@]5(C)CCC6[C@H](C)CCC([C@H]3C)[C@@]46OO5)OC3O[C@@]4(C)CCC1[C@]32OO4` (stereo not given in full) displayed a TGI of over 100 µM.

In the next experiment the test system is HCC-2998 colon. Nature of the experiment: NCI tumour cell line growth inhibition, 48 h.
As to `Cc1ccc(-c2c3c(n(C4OC(CO)C(O)C(O)C4O)c(=S)c2C#N)CC(C)(C)CC3=O)cc1` (stereo not given), the TGI was over 100 µM.

Turning to `COc1ccc(C(OCC2OC(n3cc(C)c(=O)[nH]c3=O)CC2n2cc(Cn3cc(Br)c(=O)[nH]c3=O)nn2)(c2ccccc2)c2ccccc2)cc1` (stereo not given), the TGI was over 100 µM.

For the compound `CC(C)=C1C(=O)C[C@]2(C)C[C@H]3/C(=C(/C)CCC12)CC[C@@]3(C)O` (stereo not given in full), the TGI is over 50 µM.

For `COc1ccc(C(OC(C)=O)C2C(=C(C#N)C#N)c3ccccc3C2=C(C#N)C#N)cc1` (stereo not given), the TGI came to 59.9 µM.

Take `CC(C)(C)C(=O)OC(N)/C=C/c1ccccc1` (stereo not given): the TGI was over 100 µM.

Regarding `C[C@@H]1CCC2[C@@H](C)[C@@H](OCCO[C@H]3OC4O[C@@]5(C)CCC6[C@H](C)CCC([C@H]3C)[C@@]46OO5)OC3O[C@@]4(C)CCC1[C@]32OO4` (stereo not given in full), the TGI was over 100 µM.

In another experiment the test system is K-562 leukemia. Nature of the experiment: NCI tumour cell line growth inhibition, 48 h.
As to `Cc1ccc(-c2c3c(n(C4OC(CO)C(O)C(O)C4O)c(=S)c2C#N)CC(C)(C)CC3=O)cc1` (stereo not given), the TGI was over 100 µM.

`CC(C)=C1C(=O)C[C@]2(C)C[C@H]3/C(=C(/C)CCC12)CC[C@@]3(C)O` (stereo not given in full) had a TGI of over 50 µM.

For `COc1ccc(C(OC(C)=O)C2C(=C(C#N)C#N)c3ccccc3C2=C(C#N)C#N)cc1` (stereo not given), the TGI was over 100 µM.

Another experiment relates to MDA-MB-435. Nature of the experiment: NCI tumour cell line growth inhibition, 48 h.
The compound `Cc1ccc(-c2c3c(n(C4OC(CO)C(O)C(O)C4O)c(=S)c2C#N)CC(C)(C)CC3=O)cc1` (stereo not given) returned a TGI of over 100 µM.

In turn, `COc1ccc(C(OCC2OC(n3cc(C)c(=O)[nH]c3=O)CC2n2cc(Cn3cc(Br)c(=O)[nH]c3=O)nn2)(c2ccccc2)c2ccccc2)cc1` (stereo not given) displayed a TGI of over 100 µM.

`CC(C)=C1C(=O)C[C@]2(C)C[C@H]3/C(=C(/C)CCC12)CC[C@@]3(C)O` (stereo not given in full) gave a TGI of over 50 µM.

Compound `COc1ccc(C(OC(C)=O)C2C(=C(C#N)C#N)c3ccccc3C2=C(C#N)C#N)cc1` (stereo not given) showed a TGI of over 100 µM.

`CC(C)(C)C(=O)OC(N)/C=C/c1ccccc1` (stereo not given): the TGI was over 100 µM.

For `C[C@@H]1CCC2[C@@H](C)[C@@H](OCCO[C@H]3OC4O[C@@]5(C)CCC6[C@H](C)CCC([C@H]3C)[C@@]46OO5)OC3O[C@@]4(C)CCC1[C@]32OO4` (stereo not given in full), the TGI was 98.9 µM.

The subject of another experiment is NCI-H460 lung. Put plainly: NCI tumour cell line growth inhibition, 48 h.
In turn, `Cc1ccc(-c2c3c(n(C4OC(CO)C(O)C(O)C4O)c(=S)c2C#N)CC(C)(C)CC3=O)cc1` (stereo not given) gave a TGI of over 100 µM.

On to `COc1ccc(C(OC(C)=O)C2C(=C(C#N)C#N)c3ccccc3C2=C(C#N)C#N)cc1` (stereo not given), for which the TGI is over 100 µM.

In turn, `CC(C)(C)C(=O)OC(N)/C=C/c1ccccc1` (stereo not given) registered a TGI of over 100 µM.

On to `C[C@@H]1CCC2[C@@H](C)[C@@H](OCCO[C@H]3OC4O[C@@]5(C)CCC6[C@H](C)CCC([C@H]3C)[C@@]46OO5)OC3O[C@@]4(C)CCC1[C@]32OO4` (stereo not given in full), for which the TGI is over 100 µM.

Another experiment concerns NCI-H522 lung. Put plainly: NCI tumour cell line growth inhibition, 48 h.
As to `Cc1ccc(-c2c3c(n(C4OC(CO)C(O)C(O)C4O)c(=S)c2C#N)CC(C)(C)CC3=O)cc1` (stereo not given), the TGI was over 100 µM.

`COc1ccc(C(OCC2OC(n3cc(C)c(=O)[nH]c3=O)CC2n2cc(Cn3cc(Br)c(=O)[nH]c3=O)nn2)(c2ccccc2)c2ccccc2)cc1` (stereo not given) came in with a TGI of over 100 µM.

In turn, `CC(C)=C1C(=O)C[C@]2(C)C[C@H]3/C(=C(/C)CCC12)CC[C@@]3(C)O` (stereo not given in full) yielded a TGI of over 50 µM.
